Results on one compound are retold here after patent US20220370416A1, “COMPOUNDS AND METHODS FOR TARGETED DEGRADATION OF KRAS” (Arvinas Operations, Inc., priority 2020, published 2022).

Where only a bound is given, the exact number is not on record here.

The target in one assay is T1, KRAS^G13D (Homo sapiens, UniProt P01116, G13D).
T1 construct: endogenous in cells; host or cells: HCT116
As to the kind of experiment: KRAS degradation by immunoblot in HCT 116 cells (specificity). The conditions noted are these: up to 10 μM. The assay is classed as cell-based. An excerpt: MRTX is known to be selective for mutant KRAS^G12C over other KRAS mutants (Hallin et al. 2020). To explore the specificity of LC-2, KRAS degradation was examined in HCT 116 cells, which harbor a heterozygous KRAS^G13D mutation.
NCI-H2030 (CRL-5914), MIA PaCa-2 (CRL-1420), NCI-H23 (CRL-5800), NCI-H358 (CRL-5807), and HCT-116 (CCL-247) cells were obtained from ATCC, expanded immediately, and frozen down. Vials were thawed and used within 20 passages. SW1573 cells were a gift from Arvinas and were handled in the same manner. […]
(§1) Cell lysates were clarified at 21000×g for 15 mins at 4° C. Protein levels were quantified using a 50:1 mixture of bicinchoninic acid solution (Millipore Sigma; cat. no. B9643) and 4% (w/v) copper(II) sulfate solution (Millipore Sigma; cat. no. C2284) incubated at 37° C. for 30 mins. Absorbance values at 560 nm were read on an EnVision 2101 Multilabel Reader (PerkinElmer). […]
(§2) Band intensities were quantified using BioRad's Image Lab Software. Total KRAS levels were examined by quantifying levels of both conjugated KRAS^G12C and unbound KRAS (wt or mutant) using an analysis box that spanned the two bands. This same sized box was used to quantify unbound KRAS in DMSO treated samples to account for background, except for LC-2 Epimer in FIGS. 6A and 6B. […]

Assay [1] addresses T2, KRAS^G12C (Homo sapiens, UniProt P01116, G12C). The assay can be described thus: KRAS^G12C degradation by immunoblot in NCI-H358 cells. In kind it is cell-based. Details: MRTX849-VHL bifunctional compounds engage and degrade endogenous KRAS^G12C in NCI-H2030 cells; endogenous in cells; host or cells: NCI-H2030, NCI-H358, MIA PaCa-2, SW1573, NCI-H23. The settings on record: NCI-H358, heterozygous KRAS^G12C. The method, then:
(§3) NCI-H2030 (CRL-5914), MIA PaCa-2 (CRL-1420), NCI-H23 (CRL-5800), NCI-H358 (CRL-5807), and HCT-116 (CCL-247) cells were obtained from ATCC, expanded immediately, and frozen down. Vials were thawed and used within 20 passages. SW1573 cells were a gift from Arvinas and were handled in the same manner. NCI-H2030, NCI-H23, and NCI-H358 were cultured in RPMI (ATCC30-2001) supplemented with 10% FBS (Biological Industries; cat. no. S1480) and 1% Penicillin-Streptomycin (ThermoFisher; cat. no. 15140122). HCT-116 cells were maintained in high glucose DMEM (ThermoFisher; cat. no. 11965084) supplemented as above. […]
as §1, §2
For orientation: Immunoblotting shows a protein as a band on a membrane.

In assay [2] the target is T2, KRAS^G12C. As to the kind of experiment: KRAS^G12C degradation in a panel of 5 KRAS^G12C cancer cell lines (immunoblot). The assay is classed as cell-based. Details: MRTX849-VHL bifunctional compounds engage and degrade endogenous KRAS^G12C in NCI-H2030 cells; endogenous in cells; host or cells: NCI-H2030, NCI-H358, MIA PaCa-2, SW1573, NCI-H23. The conditions noted are these: read-out: DMax values across cell lines. The method, then: as §3, §1, §2

T2 sequence (P01116 1-188 isoform P01116-2 G12C): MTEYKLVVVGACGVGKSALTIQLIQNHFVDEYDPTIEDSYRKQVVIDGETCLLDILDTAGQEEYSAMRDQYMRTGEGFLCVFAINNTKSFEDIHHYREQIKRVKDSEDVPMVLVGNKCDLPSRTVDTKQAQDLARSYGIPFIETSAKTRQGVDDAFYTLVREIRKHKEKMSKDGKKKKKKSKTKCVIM
T1 sequence (P01116 1-188 isoform P01116-2 G13D): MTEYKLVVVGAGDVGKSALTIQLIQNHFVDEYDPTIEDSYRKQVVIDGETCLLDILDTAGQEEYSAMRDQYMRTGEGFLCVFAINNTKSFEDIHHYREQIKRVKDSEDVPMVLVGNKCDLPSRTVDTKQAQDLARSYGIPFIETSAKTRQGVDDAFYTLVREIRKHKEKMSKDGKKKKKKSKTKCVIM
Description for pErk: The ability of LC-2 to modulate Erk signaling was investigated in NCI-H2030 and NCI-H23 cells during a 24 hour dose response.
Signaling kinetics were monitored during a 24 hour time course in MIA PaCa2, NCI-H23, and SW1573 cells treated with 2.5 μM LC-2.
NCI-H2030 (CRL-5914), MIA PaCa-2 (CRL-1420), NCI-H23 (CRL-5800), NCI-H358 (CRL-5807), and HCT-116 (CCL-247) cells were obtained from ATCC, expanded immediately, and frozen down. Vials were thawed and used within 20 passages. SW1573 cells were a gift from Arvinas and were handled in the same manner. NCI-H2030, NCI-H23, and NCI-H358 were cultured in RPMI (ATCC30-2001) supplemented with 10% FBS (Biological Industries; cat. no. S1480) and 1% Penicillin-Streptomycin (ThermoFisher; cat. no. 15140122). HCT-116 cells were maintained in high glucose DMEM (ThermoFisher; cat. no. 11965084) supplemented as above. MIA PaCa-2 cells were cultured in high glucose DMEM supplemented with 10% FBS, 2.5% horse serum (ThermoFisher; cat. no. 26050-088; lot 2109875), and 1% Penicillin-Streptomycin. SW1573 cells were maintained in DMEM/F12 Nutrient Mix with GlutaMAX supplement (ThermoFisher; cat. no. 10565018) with 10% FBS and 1% Penicillin-Streptomycin added. DPBS (ThermoFisher; cat. no. 14190250) was used to wash cells and 0.25% Trypsin-EDTA (ThermoFisher; cat. no. 252000-056) was used to detach cells for passaging. […] The VHL ligand was generously provided by Arvinas.
Between 2.5×10^5 and 6.0×10^5 cells were seeded into 6-well plates (Corning; cat. no. 353046). The next day, media was removed and cells were treated with 2.5 μM LC-2 for 1, 2, 4, 8, 12, or 24 hours. […]

Broadly, the DC50 is the concentration at which degradation of the target reaches its halfway point. A lower DC50 goes with a more potent degrader. The Dmax is the greatest extent of degradation seen. As to `C=C(F)C(=O)N1CCN(c2nc(OC[C@@H]3CCCN3CCCOCCC(=O)N[C@H](C(=O)N3C[C@H](O)C[C@H]3C(=O)NCc3ccc(-c4scnc4C)cc3)C(C)(C)C)nc3c2CCN(c2cccc4cccc(Cl)c24)C3)C[C@@H]1CC#N` [LC-2, (2S,4R)-1-((S)-2-(3-(3-((S)-2-(((7-(8-chloronaphthalen-1-yl)-4-((S)-3-(cyanomethyl)-4-(2-fluoroacryloyl)piperazin-1-yl)-5,6,7,8-tetrahydropyrido[3,4-d]pyrimidin-2-yl)oxy)methyl)pyrrolidin-1-yl)propoxy)propanamido)-3,3-dimethylbutanoyl)-4-hydroxy-N-(4-(4-methylthiazol-5-yl)benzyl)pyrrolidine-2-carboxamide], the “engagement or degradation of KRAS^G13D” value at KRAS^G13D is recorded as “No engagement or degradation”. In addition, the pErk result with pErk (NCI-H23, 2.5 μM LC-2, 6 and 24 hours) is listed as “suppressed”. In the assay with pErk (NCI-H23, 24 hour dose response), the pErk signaling result is recorded as “dose-dependent decrease in pErk” and the “total Erk levels” value was “elevated in a dose-dependent manner”. Besides, on KRAS^G12C [1], half-maximal degradation (DC50) was put at 520 ± 300 nM and the Dmax was over 40%. Also, at KRAS^G12C [2], the greatest degradation seen (Dmax) fell in the range of 75 to 90%.
